Data published in US10765732B2, “Compounds and methods for affecting cytokines” (Zivo Bioscience, Inc., priority 2013, dated 2020).

Key:
Type in all cases: cell-based, human
GM-CSF = experiment: ELISA of GM-CSF secretion by cultured PBMC; details: PMA (with ionomycin) alone
Experimental: (§1) According to this exemplary embodiment, phyto-percolate and the flow-through/F4 were tested as they appeared in their original concentrations right off the columns, only diluted 1:20 and 1:100 as described herein. The culture of peripheral blood mononuclear cells (“PBMC”) is prepared from two vials of frozen PBMCs that were obtained from normal healthy human subjects by a commercial vendor, and were added to 2×10 ml medium and centrifuged. PBMCs were resuspended and cultured in RPMI1640/5% FBS for 24 h. (1 vial of frozen cells in 11 ml medium).
(§2) Treatment agents for this exemplary method comprise three agents: unseparated phyto-percolate (‘PAZ’), fraction 3 (‘F3’), fraction 4 (‘F4’). Treatment concentration for each was 1:20 and 1:100. […]
(§3) According to this exemplary embodiment, seeding, treatment, and detection are accomplished by the following steps. Two dishes of PBMCs were combined and the small amount of PBMCs was stained with 0.4% Trypan blue and the cell number of PBMCs was counted using known techniques.
(§4) In this embodiment, an enzyme linked immune-sorbent assay (“ELISA”) analysis of inflammatory cytokine secretion, (a protocol provided in a commercial kit for the parallel quantification of the production of human cytokines), was employed. […]

IFN-γ = experiment: ELISA of IFN-γ secretion by cultured PBMC; details: PMA (with ionomycin) alone
Experimental: as §1, §2, §3, §4

TNF-α = experiment: ELISA of TNF-α secretion by cultured PBMC; details: PMA (with ionomycin) alone
Experimental: as §1, §2, §3, §4

IL-17A = experiment: ELISA of IL-17A secretion by cultured PBMC; details: PMA (with ionomycin) alone
Experimental: as §1, §2, §3, §4

IL-2 = experiment: ELISA of IL-2 secretion by cultured PBMC; details: PMA (with ionomycin) alone
Experimental: as §1, §2, §3, §4

NF-κB = experiment: Electrophoretic mobility shift assay (EMSA) of NF-κB DNA-binding activity in nuclear protein of cultured PBMC; details: TNF-α (50 ng/ml) added alone 1 h before harvesting, untreated control = 1.0
Experimental: as §1
Treatment agents for this exemplary method comprise three agents: unseparated phyto-percolate (‘PAZ’), fraction 3 (‘F3’), fraction 4 (‘F4’). Treatment concentration for each was 1:20 and 1:100. An exemplary sample preparation method for each agent by dilution is as follows: First, a 1:10 dilution is prepared by combining 0.7 ml agent (PAZ, F3, or F4)+6.3 ml RPMI1640/5% FBS to obtain a total volume of 7 ml of a 1:10 solution. […]
Analysis of the effect of phyto-percolate or fractions isolated therefrom on the DNA-binding activity of NF-κB in the nuclear protein fractions of the cultured PBMC was determined as follows in this exemplary embodiment: approximately 18.26 mL of suspended PBMC were added to approximately 18 mL of culture medium and 2 mL of this cell suspension (2,718,000 cells in 2 mL) were seeded into each 60 mm culture dish. […]

Q: With `CCCCCCCCCCCCCC(=O)O[C@@H]1[C@@H](C)[C@@]2(O)[C@@H](C=C(CO)C[C@]3(O)C(=O)C(C)=C[C@@H]23)[C@@H]2C(C)(C)[C@]12OC(C)=O` [PMA, phorbol myristate acetate] as the compound, how does the “production and secretion of GM-CSF” value (GM-CSF) read?
A: approximately 50 pg/100,000 cells

Q: What about the IFN-γ secreted (IFN-γ) of the same compound?
A: approximately 70 pg/100,000 cells

Q: What about the “production and secretion of TNF-α” value (TNF-α) of the same compound?
A: approximately 50 pg/100,000 cells

Q: And the “production and secretion of IL-17A” value (IL-17A)?
A: approximately 3 pg/100,000 cells

Q: And the “quantity of IL-2 produced” value (IL-2)?
A: approximately 125 pg/100,000 cells

Q: Which “DNA-binding activity of NF-κB (relative level)” value (NF-κB) does the source give for TNF-α here?
A: ~2.0 relative unit
